Values of other authors, collected in patent US20140172387A1, “PREDICTION OF MOLECULAR BIOACTIVATION” (Genentech, Inc., priority 2012, published 2014).
pIC50: −log10 of the molar value. Converted amounts (≈) assume the structure as drawn. Where two headings read alike, the source gives them in different places.

Columns and labels:
[1] = not given; remark: listed apart in the source
[2] = target: insect nicotinic acetylcholine receptor (nAChR); conditions: for pIC50: insect nAChR
α4β2 mammalian nAChR = α4β2 mammalian nAChR (Homo sapiens, UniProt P17787+P43681)
Chain of α4β2 mammalian nAChR (P43681 29-627 limits assumed): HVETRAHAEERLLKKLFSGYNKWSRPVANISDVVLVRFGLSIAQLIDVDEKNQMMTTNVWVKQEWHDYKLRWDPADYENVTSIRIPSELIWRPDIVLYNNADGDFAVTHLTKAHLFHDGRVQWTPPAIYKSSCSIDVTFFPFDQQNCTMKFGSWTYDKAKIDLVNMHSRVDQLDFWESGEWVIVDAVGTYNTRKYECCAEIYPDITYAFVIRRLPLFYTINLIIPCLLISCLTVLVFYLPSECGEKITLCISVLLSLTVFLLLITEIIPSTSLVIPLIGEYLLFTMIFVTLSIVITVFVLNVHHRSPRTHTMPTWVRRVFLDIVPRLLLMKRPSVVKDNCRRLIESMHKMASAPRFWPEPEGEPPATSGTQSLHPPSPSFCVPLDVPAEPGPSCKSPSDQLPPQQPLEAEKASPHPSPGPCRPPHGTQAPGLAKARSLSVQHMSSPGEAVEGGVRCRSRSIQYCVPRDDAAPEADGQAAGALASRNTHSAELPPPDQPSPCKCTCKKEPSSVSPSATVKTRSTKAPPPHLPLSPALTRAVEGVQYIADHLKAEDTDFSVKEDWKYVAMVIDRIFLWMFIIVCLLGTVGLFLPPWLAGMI
Chain of α4β2 mammalian nAChR (P17787 26-502): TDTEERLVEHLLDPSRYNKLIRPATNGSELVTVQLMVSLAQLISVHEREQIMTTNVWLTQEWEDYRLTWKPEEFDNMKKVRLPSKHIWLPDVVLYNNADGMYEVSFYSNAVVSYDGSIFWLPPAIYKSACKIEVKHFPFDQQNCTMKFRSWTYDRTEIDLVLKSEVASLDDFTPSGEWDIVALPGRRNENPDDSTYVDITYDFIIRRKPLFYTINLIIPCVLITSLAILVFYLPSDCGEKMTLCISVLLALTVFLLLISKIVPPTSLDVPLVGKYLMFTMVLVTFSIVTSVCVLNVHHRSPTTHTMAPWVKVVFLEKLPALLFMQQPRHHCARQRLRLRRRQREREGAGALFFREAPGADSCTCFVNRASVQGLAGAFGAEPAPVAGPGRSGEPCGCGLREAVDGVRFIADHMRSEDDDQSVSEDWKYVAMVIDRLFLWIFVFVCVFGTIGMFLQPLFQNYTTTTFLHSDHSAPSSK

CC(=O)Nc1ccc(O)cc1 [acetaminophen (1), N-acetyl-para-aminophenol]
excreted unchanged in urine: up to 9 % of therapeutic dose
water solubility (experimental data) ([1]; at 20° C): 12780 µg/mL (≈ 84.5 mM)

C=CCl [vinyl chloride (1), chloroethene]
water solubility (experimental data) [1]: 2700 µg/mL

N=C1NCCN1Cc1ccc(Cl)nc1 [imidacloprid-NH (6), imidacloprid-NH]
pIC50 [2]: 5.82
pIC50 (α4β2 mammalian nAChR; read-out: IC50): 8.09

CCc1nn(CCCN2CCN(c3cccc(Cl)c3)CC2)c(=O)n1CCOc1ccccc1 [Nefazodone (1), 1-(3-[4-(3-chlorophenyl)piperazin-1-yl]propyl)-3-ethyl-4-(2-phenoxyethyl)-1H-1,2,4-triazol-5(4H)-one]
water solubility (experimental data) ([1]; at pH 7): 6.41 µg/mL (≈ 0.0136 mM)

O=[N+]([O-])NC1=NCCN1Cc1ccc(Cl)nc1 [imidacloprid (1), N-[1-[(6-Chloro-3-pyridyl)methyl]-4,5-dihydroimidazol-2-yl]nitramide]
pIC50 [2]: 8.34
selectivity for the insect vs. the α4β2 mammalian nAChR ([2]; insect vs. mammalian α4β2 nAChR): > 500 fold
pIC50 (α4β2 mammalian nAChR): 5.59
